Drawing on patent US20110313015A1, “Fludioxonil Derivatives” (Bayer CropScience AG, priority 2010, published 2011), this text covers herbicidal activity for 1 compound.

The assay deals with common bent (Agrostis capillaris). The assay can be described thus: Herbicidal early post-emergence action (microtitre plate, visual assessment of damage). Format: in vivo. The following applies: application rate 1900 g/ha, assessed after 10 days vs untreated controls, 100% = plants have died, 0% = like control plants. The protocol: Seeds of mono- and dicotyledonous harmful plants are, in a microtitre plate, placed into sand. The compounds according to the invention, formulated as emulsion concentrates (EC), are then applied as an aqueous emulsion using spray nozzles adapted to the uHTVS to the germinated plants. After the treatment, the microtitre plates are placed in a climatized chamber and kept under good growth conditions for the test plants. The visual assessment of the damage to the test plants is carried out after a trial period of 10 days by comparison with untreated controls (herbicidal activity in percent (%): 100% activity=the plants have died, 0% activity=like control plants).

Structures are written as SMILES.

Regarding `COC(=O)CCn1cc(C#N)c(-c2cccc3c2OC(F)(F)O3)c1` [No. 1], the herbicidal activity was determined as 100%.
